From patent US20100056536A1, “METHOD OF TREATING ATRIAL FIBRILLATION” (priority 2008, published 2010)

Legend:
[1] = molecular target: T1, peak sodium channel current (INa) in canine atrial myocytes (Canis lupus familiaris, UniProt Q865W3); test: Whole-cell patch clamp, steady-state inactivation of sodium current in atrial myocytes; format: cell-based; settings: 15 μM ranolazine, n=5, before drug −86.35±0.19
T1 construct: Whole-cell peak sodium currents were recorded at 37° C. in low-sodium external solution from myocytes isolated; endogenous in cells; host or cells: myocytes isolated from right atrium and left ventricle of adult mongrel dogs
Description: (§1) FIG. 1 presents the voltage dependence of activation and steady-state inactivation of sodium current in canine atrial versus ventricular myocytes. (A) Current-voltage relationship for sodium current in ventricular and atrial myocytes. […] (B) Summarized steady-state inactivation curves. […] Insets show representative atrial and ventricular traces after 1-s conditioning pulses to the indicated potentials. (C) Steady-state inactivation curves before and after addition of 15 μM ranolazine.
(§2) The electrophysiological effects of therapeutic concentrations of ranolazine (1 to 10μmol/L) and lidocaine (2.1 to 21 μmol/L) were evaluated in canine isolated coronary-perfused atrial and ventricular preparations.
(§3) Whole-cell peak sodium currents were recorded at 37° C. in low-sodium external solution from myocytes isolated from the right atrium and left ventricle (LV) of adult mongrel dogs.

[2] = molecular target: T2, peak sodium channel current (INa) in canine ventricular myocytes (Canis lupus familiaris, UniProt Q865W3); test: Whole-cell patch clamp, steady-state inactivation of sodium current in ventricular myocytes; format: cell-based; settings: 15 μM ranolazine, before drug −72.53±0.16
T2 construct: Whole-cell peak sodium currents were recorded at 37° C. in low-sodium external solution from myocytes isolated; endogenous in cells; host or cells: myocytes isolated from right atrium and left ventricle of adult mongrel dogs
Description: as §1, §2, §3

[3] = tested on: self-terminating AF in atria exposed to ischemia and β-adrenergic agonists; test: AF induced by ischemia and β-adrenergic agonists in atria; format: cell-based, canine; settings: ranolazine 5-10 μM
Description: Ischemia/reperfusion coupled with iso-proterenol mimics the conditions that prevail during acute myocardial infarction or the substrate encountered postsurgically.

[4] = tested on: canine superfused PV sleeve preparations; test: Action potential recording in superfused pulmonary vein (PV) sleeve preparations; format: cell-based
Description: Action potentials (AP) were recorded from canine superfused PV sleeves using microelectrode techniques. Acetylcholine (ACh, 1 μM), isoproterenol (Iso, 1 μM), or their combination was used to induce EADs, DADs, and triggered activity.

Purkinje fibers = test: Action potential duration in Purkinje fibers; format: cell-based, canine; settings: ranolazine 1 to 10 μmol/L
Description: as §2

late INa = molecular target: T3, late INa (Canis lupus familiaris, UniProt Q865W3); settings: canine ventricular myocytes; read-out: IC50 for inhibition of late INa; cited from earlier work
T3 construct: host or cells: canine ventricular myocytes

peak INa = molecular target: T4, peak INa (Canis lupus familiaris, UniProt Q865W3); settings: canine ventricular myocytes; read-out: IC50 for inhibition of peak INa; cited from earlier work
T4 construct: […]; host or cells: canine ventricular myocytes

[5] = tested on: ventricular Purkinje fibers and M cell preparations; settings: paced at a CL of 500 ms; read-out: IC50 for suppression of Vmax; cited from earlier work
[6] = molecular target: T5, rapidly activating delayed rectifier potassium current (IKr) (Canis lupus familiaris, UniProt Q9TSZ3); settings: read-out: IC50 for block of IKr; cited from earlier work
T5 sequence (Q9TSZ3 1-1158): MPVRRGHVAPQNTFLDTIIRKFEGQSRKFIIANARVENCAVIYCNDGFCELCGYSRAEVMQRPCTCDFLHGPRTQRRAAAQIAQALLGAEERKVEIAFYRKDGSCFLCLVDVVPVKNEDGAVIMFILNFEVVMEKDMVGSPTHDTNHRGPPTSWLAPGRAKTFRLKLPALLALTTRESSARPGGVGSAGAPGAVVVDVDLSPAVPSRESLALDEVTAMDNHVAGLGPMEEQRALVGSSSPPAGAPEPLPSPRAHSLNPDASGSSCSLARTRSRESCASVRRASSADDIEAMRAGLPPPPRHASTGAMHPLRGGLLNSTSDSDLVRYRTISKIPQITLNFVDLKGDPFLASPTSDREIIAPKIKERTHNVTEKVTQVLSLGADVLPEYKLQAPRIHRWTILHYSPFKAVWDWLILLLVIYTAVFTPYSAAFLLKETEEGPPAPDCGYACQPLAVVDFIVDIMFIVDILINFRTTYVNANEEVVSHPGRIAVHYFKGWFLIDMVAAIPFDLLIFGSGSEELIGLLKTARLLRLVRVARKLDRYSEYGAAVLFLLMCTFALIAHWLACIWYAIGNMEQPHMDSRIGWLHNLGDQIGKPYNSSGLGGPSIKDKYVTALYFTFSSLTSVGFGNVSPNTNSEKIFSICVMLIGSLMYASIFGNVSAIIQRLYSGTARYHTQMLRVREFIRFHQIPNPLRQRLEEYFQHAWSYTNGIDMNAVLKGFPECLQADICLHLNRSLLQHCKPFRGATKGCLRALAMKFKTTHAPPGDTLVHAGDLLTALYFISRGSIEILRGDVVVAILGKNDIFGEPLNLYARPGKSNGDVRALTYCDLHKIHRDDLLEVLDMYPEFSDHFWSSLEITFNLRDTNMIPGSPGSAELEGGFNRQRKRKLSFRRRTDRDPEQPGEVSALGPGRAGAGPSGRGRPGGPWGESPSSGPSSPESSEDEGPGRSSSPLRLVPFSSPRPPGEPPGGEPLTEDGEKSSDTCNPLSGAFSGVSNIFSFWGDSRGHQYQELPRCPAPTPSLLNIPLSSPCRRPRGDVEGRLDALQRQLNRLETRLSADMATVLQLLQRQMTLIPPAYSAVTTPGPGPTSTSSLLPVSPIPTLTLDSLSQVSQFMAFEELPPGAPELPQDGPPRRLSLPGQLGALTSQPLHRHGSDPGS

[7] = tested on: acetylcholine-mediated AF in coronary artery-perfused right atrial preparations; test: Acetylcholine-mediated persistent AF in coronary artery-perfused right atrial preparations; settings: for Termination of AF (share of preparations): acetylcholine (0.5 μM) persistent AF, ranolazine 10.0 μM, lidocaine 21.0 μM, propafenone 1.5-3.0 μM
[8] = tested on: arterially-perfused right atrial preparations; test: Transmembrane action potentials in arterially-perfused right atrial preparations (Example 4); settings: for action potential duration of pectinate muscle (PM-APD75): untreated 154±11
Description: Floating microelectrode techniques were used to record transmembrane action potentials (BCL=500 ms).

[9] = tested on: canine left ventricular arterially perfused wedge preparations; test: Electrophysiology (APD90, sodium channel-dependent parameters) in arterially perfused ventricular wedge preparations; settings: for DTE (% Δ) Ventricles, diastolic threshold of excitation: ranolazine 10 μM, lidocaine 21 μM, propafenone 1.5 μM; for effect on APD90 in ventricular myocardium, in words: ranolazine 1 to 10 μmol/L, lidocaine 2.1 to 21 μmol/L
Description: (§4) Experiments were performed using isolated arterially perfused canine right atrial preparations and left ventricular arterially perfused wedge preparations (Antzelevitch et al. Circulation. 2004;110:904-910, Burashnikov et al. Am J Physiol. 2004;286:H2393-H2400., and Burashnikov et al. Circulation. 2003;107:2355-2360.) Therapeutic plasma concentrations of ranolazine (1-10 μM), lidocaine (2.1-21 μM), and propafenone (0.3-3.0 μM) were examined.
(§5) Sodium channel-mediated parameters, such as the maximum rate of rise of the AP upstroke (Vmax), conduction velocity (CV), diastolic threshold of excitation (DTE), and post-repolarization refractoriness (PRR) were evaluated. PRR was defined as the difference between action potential duration (APD) and atrial effective refractory period (ERP).

[10] = tested on: canine isolated coronary artery-perfused right atrial preparations; test: Electrophysiology (APD90, sodium channel-dependent parameters) in isolated coronary artery-perfused atrial preparations; settings: for effect on action potential duration (APD90) in atria, in words: ranolazine 1 to 10 μmol/L, lidocaine 2.1 to 21 μmol/L
Description: as §4, §5

[11] = drug alone: chronic Amio (6 weeks, 40 mg/kg daily) PV sleeves, or 10 μM ranolazine in untreated controls, untreated 124 ms
[12] = acute ranolazine 5 μM in chronic AMIO treated atria, BCL=500 ms
[13] = drug alone: chronic AMIO (40 mg/kg daily for 6 weeks) or acute ranolazine 5 μM in untreated atria, BCL=500 ms
[14] = drug alone: chronic AMIO (40 mg/kg daily for 6 weeks) or acute ranolazine 5 μM in untreated atria, BCL=500 ms, untreated 158±18

Structure (SMILES)	average CL at which 2:1 activation failure developed [4, 11]	Termination of AF (share of preparations) [7]	action potential duration of pectinate muscle (PM-APD75) [8, 13]	effective refractory period (ERP) [8, 14]	change (prolongation) of APD90 in ventricles ([9]; CL=500 ms)	DTE (% Δ) Ventricles, diastolic threshold of excitation ([9]; pacing cycle length 0.3 s)	DTE (% Δ) Ventricles, diastolic threshold of excitation ([9]; pacing cycle length 0.5 s)	effect on APD90 in ventricular myocardium, in words [9]	atrial selectivity of depression of sodium channel-dependent parameters (atria versus ventricles), in words [10]	prolongation of APD90 in atria ([10]; CL=500 ms)	effect on action potential duration (APD90) in atria, in words [10]	further results
COc1ccccc1OCC(O)CN1CCN(CC(=O)Nc2c(C)cccc2C)CC1 (racemic) [Ranolazine, (±)-N-(2,6-dimethylphenyl)-4-[2-hydroxy-3-(2-methoxyphenoxy)-propyl]-1-piperazineacetamide]	190 ms	66% (4/6)	159 ± 9 ms	190 ± 24 ms	+2%	8%	+3%	no effect	striking atrial selectivity	11%	prolongation	half-inactivation voltage (V0.5) of steady-state inactivation after ranolazine [1]: −91.38±0.35 mV; half-inactivation voltage (V0.5) of steady-state inactivation after ranolazine [2]: −74.81±0.14 mV; atria in which induction of AF was prevented [3]: 4 of 5; average CL at which 2:1 activation failure developed ([4]; 5 μM RAN superfused on chronic Amio PV sleeves, n=5): 1350 ms; average CL at which 2:1 activation failure developed ([4]; 10 μM RAN superfused on chronic Amio PV sleeves, n=5): 1660 ms; late phase 3 EAD- and DAD-induced triggered activity ([4]; RAN 5-10 μM added to chronic Amio PV sleeves, Iso and/or ACh, rapid pacing): completely eliminated; effect on APD90 in Purkinje fibers, in words (Purkinje fibers): abbreviation; IC50 (late INa): 6 µM; IC50 (peak INa): 294 µM; IC50 [5]: > 100 µM; IC50 [6]: 12 µM; action potential duration APD75 [8, 12]: 189 ± 9 ms; effective refractory period (ERP) [8, 12]: 258 ± 50 ms; shortest pacing CL permitting 1:1 response ([8]; in presence of acetylcholine (ACh), control 71±12): 94 ± 31 ms; shortest pacing CL permitting a 1:1 response ([8]; without acetylcholine, control 129±8): 234 ± 49 ms
CCCCc1oc2ccccc2c1C(=O)c1cc(I)c(OCCN(CC)CC)c(I)c1 [Chronic Amiodarone, amiodarone]	420 ms	–	183 ± 7 ms	222 ± 12 ms	12%	–	–	–	–	22%	–	maximal rate of rise of AP upstroke (Vmax) ([4]; PV sleeves from dogs treated with chronic Amio (6 weeks, 40 mg/kg daily), CL 1000 ms, untreated controls 314±79): 115±89 V/s; atria in which persistent acetylcholine-mediated AF could be induced ([7]; atria isolated from dogs chronically treated, versus 10 of 10 untreated atria): 1 of 6
CCN(CC)CC(=O)Nc1c(C)cccc1C [Lidocaine, lidocaine]	–	33% (2/6)	–	–	–	40%	+8%	abbreviated	much less atrial-selective than ranolazine or chronic amiodarone	–	abbreviated	abbreviation of APD90 in ventricles ([9]; CL=500 ms): 9%; abbreviation of APD90 in atria ([10]; CL=500 ms): 6%
CCCNCC(O)COc1ccccc1C(=O)CCc1ccccc1 (stereo not shown) [Propafenone, propafenone]	–	100% (7/7)	–	–	+3%	125%	+84%	–	–	13%	–	–
